Measured values reported in patent US9655878B2, “Composition comprising coumestrol or a bean extract containing coumestrol” (AMOREPACIFIC CORPORATION, priority 2010, dated 2017).

How the values were obtained:
[1] = test system: SH-SY5Y cells; assay: Inhibition of decline of mitochondrial potential (JC-1); assay type: cell-based; conditions: 50 μM 6-OHDA, negative control 0
Method: (§1) SH-SY5Y cells (CRL-2266, ATCC) were used to evaluate the coumestrol's effect of protecting nerve cells from neurotoxins. The cells were cultured in a medium comprising 90% DMEM, 10% fetal calf serum, 100 IU/mL penicillin and 100 μg/mL streptomycin under the condition of 37° C. and 5% CO2. When the cells grew confluent, they were harvested with trypsin, diluted on a 96-well plate to 1×10^4 cells per well, and then grafted onto a culture dish. 24 hours later, after treating the cultured cells with 0.01, 0.1 or 1 μM coumestrol, the cells were treated with 50 μM 6-OHDA 2 hours later to induce cytotoxicity. A negative control group was treated only with 50 μM 6-OHDA. Also, mitochondrial potential of the cells was measured using the JC-1 fluorescent reagent (Beyotime, China).

[2] = cited from earlier work
[3] = test system: SH-SY5Y cells; assay: Scavenging of reactive oxygen species produced by 6-OHDA (DCFH-DA); assay type: cell-based; conditions: 50 μM 6-OHDA, 6 hours, relative to negative control
Method: The same cells used in Test Example 4-1 were cultured under the same condition. The cultured cells were treated with 0.01, 0.1 or 1 μM coumestrol and then treated with 50 μM 6-OHDA 2 hours later to induce increase of reactive oxygen species (ROS) in the cells. After culturing the cells for 6 hours in an incubator, the quantity of ROS in the cells was measured using DCFH-DA and the decrease of the ROS was evaluated relative to the negative control group. The fluorescence intensity of DCF was measured with the Wallac VICTOR2 fluorometer (Wallac, Turku, Finland) at excitation wavelength of 485 nm and emission wavelength of 530 nm. ROS scavenging effect (%) relative to the negative control group was calculated from the measured fluorescence intensity.

[4] = test system: 3T3-L1 mouse preadipocytes; assay: Inhibition of adipocyte differentiation, Oil Red O staining of triglycerides; assay type: cell-based; parameters: dose or concentration left out as unconfirmed; conditions: coumestrol administered continuously, about 7 days differentiation; compared with rosiglitazone and berberine
Method: (§2) In order to evaluate the coumestrol's effect of inhibiting adipocyte differentiation, […] coumestrol (CMS) was administered continuously while 3T3-L1 mouse preadipocytes (CL-173, ATCC) were differentiated into adipocytes. […] Rosiglitazone (Rosi), which is known to promote adipocyte differentiation, was used as positive control and […] berberine (BBR), which is known to inhibit adipocyte differentiation, was used as negative control. On the day when adipocyte differentiation was started and on days 2, 4 and 6, the test substance was administered and the medium was changed. The adipocyte differentiation was carried out for about 7 days when the adipocyte differentiation was completed in the positive control group.
Then, differentiation of adipocytes was identified by staining triglycerides in the cells with Oil Red O (Sigma).

[5] = test system: Human umbilical vein endothelial cells (HUVECs); assay: Nicotine detoxifying effect, viability of vascular endothelial cells; assay type: cell-based; conditions: HUVEC, 25 mM nicotine, 24 hours, relative to untreated group, nicotine only 55.1
Method: Human umbilical vein endothelial cells (HUVECs, CRL-2873, ATCC) were used to evaluate the coumestrol's effect against nicotine which is a major toxic substance included in cigarettes. HUVECs were cultured under the condition of 37° C. and 5% CO2 using the microvascular endothelial cell growth medium-2 (EGM-2). The cells were seeded onto a 96-well plate, with 2×10^4 cells per well, and cultured for about 24 hours in a medium containing 10% FBS until ˜80% confluency. After treating with nicotine to a final concentration of 25 mM, the cells were cultured for 24 hours with 0.1, 1 or 10 μM coumestrol, except for the negative control group.

[6] = test system: mouse spleen cells; assay: Immune cell proliferating activity (CCK-8); assay type: cell-based, ICR mouse; conditions: 44 hours, relative to untreated group (100)
Method: Spleen was aseptically removed from an ICR mouse sacrificed by cervical dislocation. The spleen was washed with an RPMI 1640 solution and lightly smashed with a sterilized glass rod to isolate the mouse spleen cells. A suspension of the isolated cells was passed through a 200-mesh stainless steel sieve (Sigma Chemical Co., St. Louis, Mo., USA) and centrifuged for 10 minutes at 4° C. and 3,000 rpm in a 50-mL centrifuge tube. The resulting cell pellets were suspended in a lysing buffer (Tris-buffered ammonium chloride; 0.87% NH4Cl, pH 7.2) for 5 minutes to remove red blood cells. The cells were washed twice with RPMI by centrifugal washing, diluted to 5.0×10^6 cells/mL in 10%-FBS RPMI 1640, and seeded on a 96-well plate, with 90 μL per each well, for measurement of cell proliferating activity. After preparing a stock solution such that the final concentration of coumestrol was 0.1 or 1 μM and adding 10 μL to each well, the cells were cultured for 44 hours and the proliferating activity of the spleen cells was measured (CCK-8, Dojindo Laboratories, Japan). 10 μL of 10 μg/mL LPS was used as positive control.

[7] = test system: aP2, Acrp30, PPAR, SREBP1c and FAS mRNA in adipocytes; assay: Expression of adipocyte-specific genes by Q-PCR; assay type: cell-based, mouse; parameters: dose or concentration left out as unconfirmed; conditions: coumestrol, relative to untreated group
Method: as §2
Also, expression of adipocyte-specific genes in the in the adipocytes was investigated by Q-PCR. The genes tested were aP2 (fatty acid binding protein 4, adipocyte specific type), Acrp30 (adiponectin), PPAR (peroxisome proliferator-activated receptor), SREBP1c (sterol regulatory element binding protein 1c) and FAS (fatty acid synthase), which are used as molecular markers of adipocyte differentiation and fatty acid synthesis.

[8] = test system: SH-SY5Y cells; assay: cells; assay type: cell-based; conditions: Homo sapiens, read-out: Viability of nerve cells (%)
Method: as §1

O=c1oc2cc(O)ccc2c2oc3cc(O)ccc3c12 [Coumestrol, 3,9-dihydroxy-6H-benzofuro(3,2-c)(1)benzopyran-6-one]
Effect of inhibiting decline of mitochondrial potential (%) ([1]; 0.01 μM): 13.2% | Effect of inhibiting decline of mitochondrial potential (%) ([1]; 0.1 μM): 29.1% | Effect of inhibiting decline of mitochondrial potential (%) ([1]; 1 μM): 43.0% | bioavailability upon oral administration [2]: about 11.7% | ROS scavenging effect (%) ([3]; 0.01 μM): 73.0% | ROS scavenging effect (%) ([3]; 0.1 μM): 86.7% | ROS scavenging effect (%) ([3]; 1 μM): 93.5% | adipocyte differentiation (Oil Red O stained area) [4]: remarkably decreased | viability at 0.1 µM ([5]; 0.1 μM): 67.2% | viability at 1 µM ([5]; 1 μM): 72.2% | viability at 10 µM ([5]; 10 μM): 88.9% | activity at 0.1 µM ([6]; 0.1 μM): 278% | activity at 1 µM ([6]; 1 μM): 283% | mRNA expression of the molecular markers of adipocyte differentiation and fatty acid synthesis [7]: remarkably decreased | viability at 0.01 µM [8]: 94.4% | viability at 0.1 µM [8]: 96.5% | viability at 1 µM [8]: 98.2%
